Data: US12703729B2, “GIP agonist compounds and methods” (Zealand Pharma A/S, priority 2014, dated 2026)
Starred links: 1 amine or outer side, 2 acyl side, 3 side chain; linkers in the order of their positions; H or OH if unused. Non-standard residues stand in square brackets, D forms with d. Residues, ends and D or L forms follow the SMILES beside them. Groups on a side chain read outwards from the residue. *: point of attachment. X1 = O=C(O)CCCCCCCCCCCCCCCCCCC(=O)N1CCN(CC(=O)*)CC1; C20 diacid = O=C(O)CCCCCCCCCCCCCCCCCCC(=O)*; γGlu = O=C(O)[C@H](CCC(=O)[*:2])N[*:1]; AEEA = NCCOCCOCC(=O)O; Aib = CC(C)(N)C(=O)O

Assays:
[1] = biological target: human GLP-1 receptor (GLP-1R) (Homo sapiens, UniProt P43220); assay: Activity assay at human GLP-1 receptor, cAMP induction (AlphaScreen), Example 3
human GLP-1 receptor (GLP-1R), sequence (P43220 24-463): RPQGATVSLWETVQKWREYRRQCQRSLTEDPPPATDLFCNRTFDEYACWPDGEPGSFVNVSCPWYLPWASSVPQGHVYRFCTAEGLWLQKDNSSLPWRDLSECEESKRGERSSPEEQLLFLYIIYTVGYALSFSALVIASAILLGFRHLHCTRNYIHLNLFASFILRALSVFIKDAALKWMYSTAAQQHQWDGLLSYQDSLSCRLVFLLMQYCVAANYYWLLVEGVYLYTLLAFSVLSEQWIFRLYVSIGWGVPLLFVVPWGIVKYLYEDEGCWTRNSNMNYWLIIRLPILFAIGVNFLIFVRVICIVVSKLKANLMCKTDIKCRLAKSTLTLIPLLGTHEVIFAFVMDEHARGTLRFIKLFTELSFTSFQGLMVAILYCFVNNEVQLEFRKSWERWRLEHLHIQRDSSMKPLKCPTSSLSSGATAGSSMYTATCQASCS

[2] = biological target: T1, human GIP receptor (GIP R) (Homo sapiens, UniProt P48546); assay: Activity assay at human GIP receptor, cAMP induction (AlphaScreen), Example 3
T1 sequence (P48546 22-466): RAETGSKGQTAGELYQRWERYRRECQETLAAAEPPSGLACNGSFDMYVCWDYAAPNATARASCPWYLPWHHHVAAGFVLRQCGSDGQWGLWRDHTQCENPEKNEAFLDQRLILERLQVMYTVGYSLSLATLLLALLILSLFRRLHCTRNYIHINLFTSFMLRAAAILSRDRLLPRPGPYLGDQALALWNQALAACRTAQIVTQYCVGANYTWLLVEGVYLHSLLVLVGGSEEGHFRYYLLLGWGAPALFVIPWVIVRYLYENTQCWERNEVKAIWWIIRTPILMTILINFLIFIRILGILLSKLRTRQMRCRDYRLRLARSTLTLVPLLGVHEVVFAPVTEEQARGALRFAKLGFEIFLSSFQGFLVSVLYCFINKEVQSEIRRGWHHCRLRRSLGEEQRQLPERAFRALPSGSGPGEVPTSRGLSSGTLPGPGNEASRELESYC

human GIP R = biological target: T2, human GIP R (Homo sapiens, UniProt P48546); assay: cell-based
T2 sequence (P48546 22-466): T1 sequence (P48546 22-466)

## CC[C@H](C)[C@H](NC(=O)[C@H](CO)NC(=O)[C@H](Cc1ccc(O)cc1)NC(=O)[C@H](CC(=O)O)NC(=O)[C@H](CO)NC(=O)[C@@H](NC(=O)[C@H](Cc1ccccc1)NC(=O)[C@@H](NC(=O)CNC(=O)[C@H](CCC(=O)O)NC(=O)C(C)(C)NC(=O)[C@@H](N)Cc1ccc(O)cc1)[C@@H](C)O)[C@@H](C)CC)C(=O)N[C@@H](CCC(=O)O)C(=O)N[C@@H](CC(C)C)C(=O)N[C@@H](CC(=O)O)C(=O)N[C@@H](CCCCN)C(=O)N[C@@H](CCCCNC(=O)COCCOCCNC(=O)COCCOCCNC(=O)CC[C@H](NC(=O)CCCCCCCCCCCCCCCCCCC(=O)O)C(=O)O)C(=O)N[C@@H](C)C(=O)N[C@@H](CCC(N)=O)C(=O)N[C@@H](CCCCN)C(=O)N[C@@H](CCC(=O)O)C(=O)N[C@@H](Cc1ccccc1)C(=O)N[C@H](C(=O)N[C@@H](CCC(=O)O)C(=O)N[C@@H](Cc1c[nH]c2ccccc12)C(=O)N[C@@H](CC(C)C)C(=O)N[C@@H](CC(C)C)C(=O)N[C@@H](C)C(=O)N[C@@H](C)C(=O)NCC(=O)N1CCC[C@H]1C(=O)N[C@@H](CO)C(=O)N[C@@H](CO)C(=O)NCC(=O)N[C@@H](C)C(=O)N1CCC[C@H]1C(=O)N1CCC[C@H]1C(=O)N1CCC[C@H]1C(=O)N[C@@H](CO)C(N)=O)C(C)C [Compound 22] (H-Y[Aib]EGTFISDYSIELDKK([AEEA-AEEA-γGlu-C20 diacid])AQKEFVEWLLAAGPSSGAPPPS-NH2)
[1]
  EC50: > 10 nM
[2]
  EC50: 0.007 nM
Human GIP R
  EC50: 0.005 nM

## CC[C@H](C)[C@H](NC(=O)[C@H](CCCCN)NC(=O)[C@H](CC(=O)O)NC(=O)[C@H](CC(C)C)NC(=O)[C@H](CCC(=O)O)NC(=O)[C@@H](NC(=O)[C@H](CO)NC(=O)[C@H](Cc1ccc(O)cc1)NC(=O)[C@H](CC(=O)O)NC(=O)[C@H](CO)NC(=O)[C@@H](NC(=O)[C@H](Cc1ccccc1)NC(=O)[C@@H](NC(=O)CNC(=O)[C@H](CCC(=O)O)NC(=O)C(C)(C)NC(=O)[C@@H](N)Cc1ccc(O)cc1)[C@@H](C)O)[C@@H](C)CC)[C@@H](C)CC)C(=O)N[C@@H](C)C(=O)N[C@@H](CCC(N)=O)C(=O)N[C@@H](CCCNC(=N)N)C(=O)N[C@@H](C)C(=O)N[C@@H](Cc1ccccc1)C(=O)N[C@H](C(=O)N[C@@H](CCC(=O)O)C(=O)N[C@@H](Cc1c[nH]c2ccccc12)C(=O)N[C@@H](CC(C)C)C(=O)N[C@@H](CC(C)C)C(=O)N[C@@H](C)C(=O)NCC(=O)N1CCC[C@H]1C(=O)N[C@@H](CO)C(=O)N[C@@H](CO)C(=O)NCC(=O)N[C@@H](C)C(=O)N1CCC[C@H]1C(=O)N1CCC[C@H]1C(=O)N1CCC[C@H]1C(=O)N[C@@H](CO)C(=O)N[C@@H](CCCCNC(=O)COCCOCCNC(=O)COCCOCCNC(=O)CC[C@H](NC(=O)CCCCCCCCCCCCCCCCCCC(=O)O)C(=O)O)C(N)=O)[C@@H](C)CC [Compound 23] (H-Y[Aib]EGTFISDYSIELDKIAQRAFIEWLLAGPSSGAPPPSK([AEEA-AEEA-γGlu-C20 diacid])-NH2)
[1]
  EC50: > 10 nM
[2]
  EC50: 0.005 nM
Human GIP R
  EC50: 0.01 nM

## CC[C@H](C)[C@H](NC(=O)[C@H](CCCCN)NC(=O)[C@H](CC(=O)O)NC(=O)[C@H](CC(C)C)NC(=O)[C@H](CCC(=O)O)NC(=O)[C@@H](NC(=O)[C@H](CO)NC(=O)[C@H](Cc1ccc(O)cc1)NC(=O)[C@H](CC(=O)O)NC(=O)[C@H](CO)NC(=O)[C@@H](NC(=O)[C@H](Cc1ccccc1)NC(=O)[C@@H](NC(=O)CNC(=O)[C@H](CCC(=O)O)NC(=O)C(C)(C)NC(=O)[C@@H](N)Cc1ccc(O)cc1)[C@@H](C)O)[C@@H](C)CC)[C@@H](C)CC)C(=O)N[C@@H](C)C(=O)N[C@@H](CCC(N)=O)C(=O)N[C@@H](CCCCN)C(=O)N[C@@H](CCC(=O)O)C(=O)N[C@@H](Cc1ccccc1)C(=O)N[C@H](C(=O)N[C@@H](CCC(=O)O)C(=O)N[C@@H](Cc1c[nH]c2ccccc12)C(=O)N[C@@H](CC(C)C)C(=O)N[C@@H](CC(C)C)C(=O)N[C@@H](C)C(=O)NCC(=O)N1CCC[C@H]1C(=O)N[C@@H](CO)C(=O)N[C@@H](CO)C(=O)NCC(=O)N[C@@H](C)C(=O)N1CCC[C@H]1C(=O)N1CCC[C@H]1C(=O)N1CCC[C@H]1C(=O)N[C@@H](CO)C(=O)N[C@@H](CCCCNC(=O)COCCOCCNC(=O)COCCOCCNC(=O)CC[C@H](NC(=O)CCCCCCCCCCCCCCCCCCC(=O)O)C(=O)O)C(N)=O)[C@@H](C)CC [Compound 24] (H-Y[Aib]EGTFISDYSIELDKIAQKEFIEWLLAGPSSGAPPPSK([AEEA-AEEA-γGlu-C20 diacid])-NH2)
[1]
  EC50: > 10 nM
[2]
  EC50: 0.01 nM
Human GIP R
  EC50: 0.008 nM

## CC[C@H](C)[C@H](NC(=O)[C@H](CCCCN)NC(=O)[C@H](CC(=O)O)NC(=O)[C@H](CC(C)C)NC(=O)[C@H](CCC(=O)O)NC(=O)[C@@H](NC(=O)[C@H](CO)NC(=O)[C@H](Cc1ccc(O)cc1)NC(=O)[C@H](CC(=O)O)NC(=O)[C@H](CO)NC(=O)[C@@H](NC(=O)[C@H](Cc1ccccc1)NC(=O)[C@@H](NC(=O)CNC(=O)[C@H](CCC(=O)O)NC(=O)C(C)(C)NC(=O)[C@@H](N)Cc1ccc(O)cc1)[C@@H](C)O)[C@@H](C)CC)[C@@H](C)CC)C(=O)N[C@@H](C)C(=O)N[C@@H](C)C(=O)N[C@@H](CCC(N)=O)C(=O)N[C@@H](CC(=O)O)C(=O)N[C@@H](Cc1ccccc1)C(=O)N[C@H](C(=O)N[C@@H](CCC(=O)O)C(=O)N[C@@H](Cc1c[nH]c2ccccc12)C(=O)N[C@@H](CC(C)C)C(=O)N[C@@H](CC(C)C)C(=O)N[C@@H](C)C(=O)NCC(=O)N1CCC[C@H]1C(=O)N[C@@H](CO)C(=O)N[C@@H](CO)C(=O)NCC(=O)N[C@@H](C)C(=O)N1CCC[C@H]1C(=O)N1CCC[C@H]1C(=O)N1CCC[C@H]1C(=O)N[C@@H](CO)C(=O)N[C@@H](CCCCNC(=O)COCCOCCNC(=O)COCCOCCNC(=O)CC[C@H](NC(=O)CCCCCCCCCCCCCCCCCCC(=O)O)C(=O)O)C(N)=O)[C@@H](C)CC [Compound 25] (H-Y[Aib]EGTFISDYSIELDKIAAQDFIEWLLAGPSSGAPPPSK([AEEA-AEEA-γGlu-C20 diacid])-NH2)
[1]
  EC50: > 100 nM
[2]
  EC50: 0.008 nM
Human GIP R
  EC50: 0.032 nM

## CC[C@H](C)[C@H](NC(=O)[C@H](CCCCN)NC(=O)[C@H](CC(=O)O)NC(=O)[C@H](CC(C)C)NC(=O)[C@H](CCC(=O)O)NC(=O)[C@@H](NC(=O)[C@H](CO)NC(=O)[C@H](Cc1ccc(O)cc1)NC(=O)[C@H](CC(=O)O)NC(=O)[C@H](CO)NC(=O)[C@@H](NC(=O)[C@H](Cc1ccccc1)NC(=O)[C@@H](NC(=O)CNC(=O)[C@H](CCC(=O)O)NC(=O)C(C)(C)NC(=O)[C@@H](N)Cc1ccc(O)cc1)[C@@H](C)O)[C@@H](C)CC)[C@@H](C)CC)C(=O)N[C@@H](C)C(=O)N[C@@H](C)C(=O)N[C@@H](CCC(N)=O)C(=O)N[C@@H](CC(=O)O)C(=O)N[C@@H](Cc1ccccc1)C(=O)N[C@H](C(=O)N[C@@H](CCC(=O)O)C(=O)N[C@@H](Cc1c[nH]c2ccccc12)C(=O)N[C@@H](CC(C)C)C(=O)N[C@@H](CC(C)C)C(=O)N[C@@H](C)C(=O)NCC(=O)N1CCC[C@H]1C(=O)N[C@@H](CO)C(=O)N[C@@H](CO)C(=O)NCC(=O)N[C@@H](C)C(=O)N1CCC[C@H]1C(=O)N1CCC[C@H]1C(=O)N1CCC[C@H]1C(=O)N[C@@H](CO)C(=O)N[C@@H](CCCCNC(=O)COCCOCCNC(=O)COCCOCCNC(=O)CN1CCN(C(=O)CCCCCCCCCCCCCCCCCCC(=O)O)CC1)C(N)=O)[C@@H](C)CC [Compound 26] (H-Y[Aib]EGTFISDYSIELDKIAAQDFIEWLLAGPSSGAPPPSK([AEEA-AEEA-X1])-NH2)
[1]
  EC50: > 10 nM
[2]
  EC50: 0.032 nM
Human GIP R
  EC50: 0.017 nM

## CC[C@H](C)[C@H](NC(=O)[C@H](CCCCN)NC(=O)[C@H](CC(=O)O)NC(=O)[C@H](CC(C)C)NC(=O)[C@H](CCC(=O)O)NC(=O)[C@@H](NC(=O)[C@H](CO)NC(=O)[C@H](Cc1ccc(O)cc1)NC(=O)[C@H](CC(=O)O)NC(=O)[C@H](CO)NC(=O)[C@@H](NC(=O)[C@H](Cc1ccccc1)NC(=O)[C@@H](NC(=O)CNC(=O)[C@H](CCC(=O)O)NC(=O)C(C)(C)NC(=O)[C@@H](N)Cc1ccc(O)cc1)[C@@H](C)O)[C@@H](C)CC)[C@@H](C)CC)C(=O)N[C@@H](C)C(=O)N[C@@H](C)C(=O)N[C@@H](CCC(N)=O)C(=O)N[C@@H](CC(=O)O)C(=O)N[C@@H](Cc1ccccc1)C(=O)N[C@H](C(=O)N[C@@H](CCC(=O)O)C(=O)N[C@@H](Cc1c[nH]c2ccccc12)C(=O)N[C@@H](CC(C)C)C(=O)N[C@@H](CC(C)C)C(=O)N[C@@H](C)C(=O)NCC(=O)N1CCC[C@H]1C(=O)N[C@@H](CO)C(=O)N[C@@H](CO)C(=O)NCC(=O)N[C@@H](C)C(=O)N1CCC[C@H]1C(=O)N1CCC[C@H]1C(=O)N1CCC[C@H]1C(=O)N[C@@H](CO)C(=O)N[C@@H](CCCCNC(=O)COCCOCCNC(=O)COCCOCCNC(=O)CC[C@H](NC(=O)CCCCCCCCCCCCCCCCCCC(=O)O)C(=O)O)C(N)=O)C(C)C [Compound 27] (H-Y[Aib]EGTFISDYSIELDKIAAQDFVEWLLAGPSSGAPPPSK([AEEA-AEEA-γGlu-C20 diacid])-NH2)
[1]
  EC50: > 10 nM
[2]
  EC50: 0.017 nM
Human GIP R
  EC50: 0.013 nM
